The values below come from patent US6423752B1, “Indane dimer compounds with smooth muscle relaxing and/or mast cell stabilizing and/or anti-inflammatory activity” (Venantius Limited, priority 1995, dated 2002).

Molecules are shown by their SMILES. Structures can show the parent of a compound that is named as a salt. Where two headings read alike, the source gives them in different places.

One assay has as its system ileum. Kind of assay: Smooth muscle effects: CaCl2 induced contractions of ileum. Details: species or system Guinea pigs. Conditions: for inhibition at 3 µM / inhibition at 0.3 µM / inhibition at 0.03 µM / inhibition at 10 µM / inhibition at 1 µM / inhibition at 0.1 µM: Cavia porcellus, read-out: Percentage Inhibition of CaCl2 Induced Contractions. On the procedure: (§1) The compounds were assessed for their ability to stabilize mast cell membranes in vitro. Mast cells treated with the compounds and un-treated mast cells were stimulated to release histamine. A reduction in histamine release by the treated cells compared to the untreated cells indicates stabilisation of the membrane. The compounds were assessed for their ability to relax smooth muscle in vitro. Intestinal smooth muscle was stimulated to contract, using calcium chloride and subsequently treated with the compounds, relaxation of the contraction was measured for each compound. The effects of the compounds were also studied on relaxation of guinea-pig tracheal muscle. In the rat paw oedema test, the drugs were administered systemically prior to inducing inflammation by the injection of carageenan below the plantar aponeurosis of the hind paw. The volume of the paw was determined both before and after treatment as an index of oedema. In the mouse ear oedema test, the drugs were administered topically prior to inducing inflammation by the topical application of arachidonic acid. The width of the ear was determined both before and after treatment as an index of oedema.
Guinea pigs (350 g approx.), of either sex, were killed in an atmosphere of saturated CO2. The abdomen was opened by a mid-line incision and the small intestine was removed. The trachea was removed and sectioned between the cartilage rings, which were then split through.
Segments of ileum (1-1.5 cm) were suspended in a high potassium, no calcium Krebs buffer (NaCl 160.44 mM); KCl 45 mM; MgCl2 0.54 mM; NaH2PO4 0.89 mM; NaH2CO3 24.9 mM; Glucose 11.1 mM). Tracheal sections were suspended in normal Krebs buffer (NaCl […]; KCl 4.7 mM; CaCl2 2.5 mM; MgCl2 0.54 mM; NaH2PO4 0.89 mM; NaHCO3 24.9 mM; Glucose 11.1 mM). The solutions were maintained at 37° C. by a jacketed organ bath and gassed with 95% O2 and 5% CO2. The tissues were anchored by thread to the bottom of the organ bath and suspended from force displacement transducers under a resting tension of 1 g approx. in the case of ileum and 4 g approx. in the case of trachea. Isotonic contractions were recorded using a MacLab/4e system in conjunction with the Chart 3.3.1 software package. Surplus tissue was stored at 4° C. in Krebs buffer, for a maximum of 48 hours.
Four segments of tissue were suspended and observed concurrently. Contractions were initiated by the addition of 25 μl of 1M CaCl2 (a final concentration of 2.5 mM). The contractions stabilized with time, 10-15 min, and could be maintained for up to 45 min. from the addition of the CaCl2. The tracheal sections were allowed to develop spontaneous resting tension over a period of 30 mins.
Stock solutions of drug were prepared at 10^−3M in 50% (v/v) DMSO. These were diluted to give; 10^−4M in 5% (v/v) DMSO and 10^−5M in 0.5% (v/v) DMSO. In cases of poor solubility the 10^−3M stock was made up in higher concentrations of DMSO. Solvent ‘blank’ solutions were prepared containing 50%, 5% and 0.5% (v/v) DMSO (or as appropriate). […] A second cumulative dose-response assay was carried out using DMSO ‘blank’ solutions only.
Each drug was tested, in duplicate, on at least three different animals (n=3). The results were expressed as percentage inhibition of the CaCl2 induced contraction in the case of ideal tissue and percentage relaxation in the case of tracheal tissue, for each tissue, at each concentration of drug in DMSO. The effect of DMSO, for each tissue at each concentration, was subtracted from the effect of the drug in DMSO, to give the effect of the drug alone. A log dose vs. response curve was plotted for each drug using the mean and the standard error of the mean for the cumulated results.

In a further assay the test system is mast cells. Kind of assay: Histamine release assay (compound 48/80 stimulated mast cells). The assay is classed as cell-based, Wistar rats. Conditions: 2 × 10^−5 M, rat peritoneal mast cells; for inhibition at 20 µM: Rattus norvegicus, Mast cell, read-out: Percentage Inhibition of Histamine Release. On the procedure:
as §1
The buffered salt solution (BSS) was prepared in advance (NaCl 137 mM; KCl 2.7 mM; MgCl2 1.0 mM; CaCl2 0.5 mM, NaH2PO4 0.4 mM; Glucose 5.6 mM; HEPES 10 mM). This was dispensed into test tubes and heated to 37° C., each test tube contained 4.5 ml BSS. The solvent blank was supplemented with 0.5% (v/v) dimethyl sulphoxide (DMSO) or 0.5% (v/v) distilled water (dH2O). The two positive controls were supplemented with 0.5% (v/v) dH2O/2×10^−5M disodium cromoglycate (DSCG) and 0.5% (v/v) DMSO/2×10^−5M DSCG. The test compounds' incubation tubes contained 2×10^−5M test compound/0.5% (v/v) DMSO. The basal release, maximum release and total histamine content incubation tubes contained no additions.
Female Wistar rats (200-300 g) were killed in an atmosphere of saturated CO2. Pre-warmed BSS (10 ml) was injected i.p. and the abdomen was massaged for 3 min. The BSS, with suspended mast cells and other cells, was aspirated following a mid-line incision. The aspirate was centrifuged for 5 min at 400 g and the supernatant removed. The cells were re-suspended in BSS, at 4° C., and centrifuged as before the cells were washed in this manner a total of three times. Following the final wash, the pelleted cells were stored at 4° C., for use as soon as possible.
The cells were re-suspended in 7 ml BSS. From this, 0.5 ml aliquots were transferred to each of the incubation tubes. After 10 min at 37° C. with gentle agitation, Compound 48/80 was added to a final concentration of […], in order to stimulate histamine release. The cell stimulation was stopped after 2 min by the addition of 0.5 ml ice cold BSS, the incubation tubes were transferred to an ice bath. The cell suspensions were centrifuged for 5 min at 400 g. The “total histamine content” tube was placed at 100° C. for 2 min prior to centrifugation. The supernatants were retained for histamine assay.
To 2 ml of supernatant from each tube was added 0.4 ml of 1M NaOH and 0.1 ml oPT (1% (w/v) in methanol). This was incubated at room temperature for 4 min. The reaction was stopped by the addition of 0.2 ml of 3M HCl. The supernatant from each incubation tube was assayed in duplicate and run simultaneously with a standard curve in the range 0-1000 ng/ml. The presence of the fluorescent product of the reaction was measured using a Shimazu RF-1501 spectrofluorophotometer set at λex=360 nm, λem=450 nm.
Each drug was tested on at least five animals (n=5). The results were expressed as a percentage of maximum, compound 48/80 induced, histamine release in the solvent blank sample. Each drug was compared to DSCG on the same tissues. The basal histamine release in untreated cells was noted, expressed as a percentage of the total histamine content of the cells in suspension. […]

[1] abbreviates: 3 × 10^−6 M, guinea pig ileum, DMSO effect subtracted.
Setting [2] is: 3 × 10^−7 M, guinea pig ileum, DMSO effect subtracted.
The mark [3] stands for this setting: 3 × 10^−8 M, guinea pig ileum, DMSO effect subtracted.
Setting [4] is: 10^−5 M, guinea pig ileum, DMSO effect subtracted.
[5] abbreviates: 10^−6 M, guinea pig ileum, DMSO effect subtracted.
Setting [6] is: 10^−7 M, guinea pig ileum, DMSO effect subtracted.

Turning to `CN(C1CCc2ccccc21)C1CC(=O)c2ccccc21` (centres unmarked) [Compound 5C5, 3-(N-methyl-N-1-indanylamino)-indan-1-one], the inhibition (commonly the drop in the measured response relative to a control, in per cent) at 3 µM with ileum (setting [1]) was 3.56%. The inhibition at 0.3 µM with ileum (setting [2]) amounted to 0.43%. Besides, the inhibition at 0.03 µM in the assay with ileum (setting [3]) is -0.26%. In addition, in the assay with ileum (setting [4]), the inhibition at 10 µM amounted to 10.5%. In addition, the inhibition at 1 µM with ileum (setting [5]) was determined as 1.56%. The inhibition at 0.1 µM with ileum (setting [6]) was 0.28%. Further, in the assay with mast cells, the inhibition at 20 µM is 58.7%.
`O=C1CC(N(Cc2ccccc2)C2Cc3ccccc3C2)c2ccccc21` (centres unmarked) [Compound 6C8, 3-(N-benzyl-N-2-indanylamino)-indan-1-one]: in the assay on ileum, the inhibition at 0.03 µM is 1.97%, the inhibition at 0.1 µM was 2.94%, the inhibition at 0.3 µM turned out to be 3.26% and the inhibition at 1 µM worked out at 4.69%. For the same compound, in the assay with ileum, the inhibition at 3 µM stood at 11.3% and the inhibition at 10 µM is 31.1%. In addition, the inhibition at 20 µM in the assay on mast cells was determined as 88.6%.
Turning to `C=CCN(C1Cc2ccccc2C1)C1CC(=O)c2ccccc21` (centres unmarked) [Compound 6C12, 3-(N-prop-2-enyl-N-2-indanylamino)-indan-1-one hydrochloride], in the assay on mast cells (hydrochloride), the “Percentage Inhibition of Histamine Release” value is reported as 91.35%.
Consider `C=CCN(C1CCc2ccccc21)C1CC(=O)c2ccccc21` (centres unmarked) [Compound 5C11, 3-(N-prop-2-enyl-N-1-indanylamino)-indan-1-one hydrochloride], for which the “Percentage Inhibition of Histamine Release” value in the assay with mast cells (hydrochloride) worked out at 90.27%.
The same measure, in the same setting: the figure for `O=C1CC(NC2CCc3ccccc32)c2ccccc21` (centres unmarked) [Compound 5C8, 3-(N-1-indanylamino) -indan-1-one. Hydrochloride] is 14.33%.
Take `O=C1CC(NC2Cc3ccccc3C2)c2ccccc21` (centres unmarked) [Compound 6C9, 3-(N-2-indanylamino)indan-1-one. Hydrochloride]: the “Percentage Inhibition of CaCl2 Induced Contractions” value in the assay with ileum (3 × 10^−6 M, guinea pig ileum, DMSO effect subtracted, Hydrochloride) is recorded as −0.86%; in the assay on ileum (3 × 10^−7 M, guinea pig ileum, DMSO effect subtracted, Hydrochloride) it was −1.76%; in the assay on ileum (3 × 10^−8 M, guinea pig ileum, DMSO effect subtracted, Hydrochloride) it was 0.31%; in the assay on ileum (10^−5 M, guinea pig ileum, DMSO effect subtracted, Hydrochloride), 1.58%; in the assay on ileum (10^−6 M, guinea pig ileum, DMSO effect subtracted, Hydrochloride), −2.94%; in the assay with ileum (10^−7 M, guinea pig ileum, DMSO effect subtracted, Hydrochloride) it was 0.61%. Also, in the assay with mast cells (hydrochloride), the “Percentage Inhibition of Histamine Release” value turned out to be 43.60%.
`C=CCN(C1CCc2ccccc21)C1CC(=O)c2ccccc21` (centres unmarked) [5C6 BR]: in the assay with ileum (setting [1]), the inhibition at 3 µM came out at 8.72%. Also, the inhibition at 10 µM in the assay on ileum (setting [4]) turned out to be 31.6%. Besides, the “Percentage Inhibition of Histamine Release” value with mast cells was 78.84%.
`O=C1CC(NC2Cc3ccccc3C2)c2ccccc21` (centres unmarked) [Compound 6C4, 3-(N-2-indanylamino)-indan-1-one]: the “Percentage Inhibition of CaCl2 Induced Contractions” value with ileum (setting [1]) worked out at 17.11%; in the assay with ileum (setting [2]), 4.63%; in the assay on ileum (setting [3]), 2.16%; in the assay with ileum (setting [4]), 33.46%; in the assay with ileum (setting [5]), 8.84%; with ileum (setting [6]), 3.02%. In the assay with mast cells, the “Percentage Inhibition of Histamine Release” value was determined as 14.92%.
`O=C1CC(NC2CCc3ccccc32)c2ccccc21` (centres unmarked) [Compound 5C3, 3-(N-1-indanylamino)-indan-1-one]: the inhibition at 3 µM in the assay with ileum (setting [1]) is 15.1%. The inhibition at 0.3 µM with ileum (setting [2]) amounted to 3.78%. In the assay on ileum (setting [3]), the inhibition at 0.03 µM was 0.53%. The inhibition at 10 µM in the assay with ileum (setting [4]) was found to be 30%. Moreover, the inhibition at 1 µM in the assay on ileum (setting [5]) worked out at 7.21%. Further, the inhibition at 0.1 µM in the assay on ileum (setting [6]) worked out at 2.61%. In the assay with mast cells, the “Percentage Inhibition of Histamine Release” value worked out at 32.77%.
With `OC1CC(NC2CCc3ccccc32)c2ccccc21` (centres unmarked) [Compound 5C4, 3-(N-1-indanylamino)indan-1-ol], in the assay with ileum (setting [1]), the inhibition at 3 µM was found to be 5.08%. Besides, the inhibition at 0.3 µM with ileum (setting [2]) was -0.99%. Also, in the assay with ileum (setting [3]), the inhibition at 0.03 µM is -0.86%. Also, the inhibition at 10 µM in the assay on ileum (setting [4]) is 19.1%. The inhibition at 1 µM in the assay with ileum (setting [5]) was found to be 1.15%. In addition, the inhibition at 0.1 µM in the assay with ileum (setting [6]) is -0.86%. For the same compound, the inhibition at 20 µM in the assay with mast cells was found to be 5.68%.
`Cc1ccc(S(=O)(=O)N(C2CCc3ccccc32)C2CC(=O)c3ccccc32)cc1` (centres unmarked) [Compound 5C10, N-1-Indanyl-N-3-indan-1-onyl-p-toluenesulfonamide]: the inhibition at 20 µM in the assay on mast cells was found to be 40.8%.
Regarding `O=C1CC(N(Cc2ccccc2)C2CCc3ccccc32)c2ccccc21` (centres unmarked) [Compound 5C7, 3-(N-benzyl-N-1-indanylamino)-indan-1-one], in the assay with ileum, the inhibition at 0.03 µM was 0.16%, the inhibition at 0.1 µM is -0.44%, the inhibition at 0.3 µM is -0.36% and the inhibition at 1 µM is -1.72%. In the assay with ileum, the inhibition at 3 µM stood at 0% and the inhibition at 10 µM turned out to be 2.06%. In addition, in the assay on mast cells, the inhibition at 20 µM came out at 24.1%.
